Laboratory results reported in patent US9198886B2, “Use of 2,5-dihydroxybenzene for the treatment of ocular diseases” (priority 2006, dated 2015).

Experiments:
[1] = system: corneal neovascularization; experiment: Topical solution in a patient with corneal neovascularization; assay type: in vivo, human; settings: 5% solution of potassium salt, 4 drops a day topically, 19 days, one patient
From the text: Photographs showing the presence of corneal neovascularization in a patient before being treated (A) and after 19 days of topical application of a solution containing 5% of potassium 2,5-dihydroxybenzoate (B). The treatment consisted of daily topical application of 4 drops of such solution.
4 drops a day were topically applied in a patient that presented a corneal neovascularization process refractory to any type of previous treatment.

[2] = molecular target: T1, fibroblast growth factor-1 (FGF-1) (Homo sapiens, UniProt P05230); experiment: FGF-1 induced mitogenesis in quiescent Balb/c 3T3 fibroblasts; assay type: cell-based; settings: potassium salts, except 2-acetoxy-5-hydroxybenzene sulfonate as calcium salt
T1 sequence (P05230 whole entry, species assumed): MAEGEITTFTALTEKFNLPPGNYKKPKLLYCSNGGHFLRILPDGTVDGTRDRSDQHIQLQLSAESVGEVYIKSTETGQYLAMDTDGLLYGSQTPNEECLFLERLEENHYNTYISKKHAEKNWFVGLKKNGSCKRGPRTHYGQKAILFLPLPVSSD
Procedure: The evaluated compounds were used in the form of potassium salt, except in the first case in which calcium salt was used. The experiments were carried out as described in Fernández-Tornero C et al. J Biol Chem, 2003.

rat glioma C6 cells = experiment: Proliferation of rat glioma C6 cells (crystal violet); assay type: cell-based; settings: 500 μM, 48 h
Procedure: FIG. 23. […] 5A-2HBS and 2A-5HBS were administered or not (control) after seeding C6 cells in 24 well plates (10^4 per well) until they were fixed 48 hours later. Data are expressed as the mean±SEM of the percentage of absorbance at 595 nm obtained in control cultures, which is proportional to the number of cells stained with crystal violet. Data were obtained from 3 cultures for each treatment and 6 control cultures.
The cell line used was the C6 cell line. The cells were cultured as previously described (Cuevas P et al., Neurol Res 2005, 27:797-800). The cells were cultured as adherent cells in Dulbecco's modified Eagle's medium, supplemented with 7.5% (v/v) fetal bovine serum, 10 μg/ml streptomycin and 10 units/ml penicillin. The tumor cells were seeded in 24-well plates at a density of 10,000 cells/well, and were incubated at 37° C. in a humidified chamber with 5% CO2. Once adhered, the cells were treated or not (controls) with (5A-2HBS) (500 μM) or (2A-5HBS) (500 μM) and they were allowed to proliferate for 48 h. After this time the glioma cell proliferation was evaluated by means of staining the fixed cells with crystal violet. The number of cells is proportional to the amount of retained dye, which was determined spectrophotometrically by measuring the absorbance at 595 nm once the dye was extracted from the cells.

[3] = molecular target: T1, fibroblast growth factor-1 (FGF-1); experiment: Co-crystal structure with fibroblast growth factor-1; assay type: binding; settings: for binding site on FGF-1: crystal diffraction of the complex; for acetoxyl groups of the compound when bound to FGF-1: crystal diffraction, electron density contoured at 1σ
From the text: (§1) FIG. 24. 2-acetoxy-5-hydroxybenzenesulfonic acid co-crystallized with fibroblast growth factor-1. […] The compound occupies a place that is very close to that described occupied by 2,5-dihydroxybenzenesulfonic acid, the aromatic ring of which forms a cation-π bond with the N^ε group of lysine 132, which is marked in panel A as reference. […] In panels A and B, the protein surface is colored according to its electrostatic potential (light grey: negative charge; dark grey: positive charge; white: lack of charge).
as §1, with “25. 5-acetoxy-2-hydroxybenzenesulfonic” for “24. 2-acetoxy-5-hydroxybenzenesulfonic”
as §1, with “26. 2,5-diacetoxybenzenesulfonic” for “24. 2-acetoxy-5-hydroxybenzenesulfonic”
Based on the crystal diffraction of the FGF-1:2-acetoxy-5-hydroxybenzene sulfonic acid, FGF-1:5-acetoxy-2-hydroxybenzene sulfonic acid and FGF-1:2,5-diacetoxybenzene sulfonic acid complexes, the structures of the complexes were calculated and represented. FIGS. 24, 25 and 26, which show the surface of the dyed protein according to its electrostatic potential (light grey: negative charge; dark grey: positive charge; white: lack of charge), show the manner in which 2-acetoxy-5-hydroxybenzene sulfonic acid, 5-acetoxy-2-hydroxybenzene sulfonic acid and 2,5-diacetoxybenzene sulfonic acid interact, respectively, with FGF-1.

[4] = system: human retinal endothelial cells (HREC); experiment: Proliferation of human retinal endothelial cells (crystal violet); assay type: cell-based; settings: 72 hours
Procedure: (§2) Primary cultures of human retinal endothelial cells (HREC) were used. Cells were obtained from Cell Systems (Virginia, USA) and subcultured with CSC complete medium (Cell Systems). Cells at 2 to 5 passages were seeded in 24-well plates at 7,500 cells/well density and, once attached, the cells were treated or not treated (controls) with 2A-5HBS (500 and 1000 μM) or 5A-2HBS (500 and 1000 μM) and they were allowed to proliferate for 72 hours, with daily medium changes. After that, the proliferation of HREC was evaluated by staining the fixed cells with crystal violet. The number of cells is proportional to the amount of retained dye, which was spectrophotometrically determined by measuring absorbance at 595 nm after removing the dye from the cells. Data are expressed as the percentage of absorbance at 595 nm obtained in control conditions. Data were obtained from two different experiments performed in triplicate.
as §2, with “2,5-DHCME (50” for “2A-5HBS (500”, “100” for “1000 μM) or 5A-2HBS (500 and 1000”, “changes. Under the same conditions, other cultures were treated with calcium 2,5-dihydroxybenzenesulfonate (DHBS; 100 μM) for comparison.” for “changes.”

SMILES	degree of corneal vascularization [1]	FGF-1 induced mitogenesis [2]	C6 glioma cell proliferation (rat glioma C6 cells)	binding site on FGF-1 [3]	acetoxyl groups of the compound when bound to FGF-1 [3]	HREC proliferation ([4]; 500 μM)	HREC proliferation ([4]; 1000 μM)	HREC proliferation ([4]; 50 μM)	HREC proliferation ([4]; 100 μM, DHBS as calcium salt)
O=C([O-])c1cc(O)ccc1O.[K+] [2,5-dihydroxybenzoate, potassium 2,5-dihydroxybenzoate]	remarkable reduction in the degree of corneal vascularization	–	–	–	–	–	–	–	–
CC(=O)Oc1ccc(O)cc1S(=O)(=O)[O-].[K+] [2A-5HBS, potassium 2-acetoxy-5-hydroxybenzene sulfonate]	–	Inhibition of FGF-1 induced mitogenesis was observed	inhibition of rat glioma cell proliferation	very close to the one that has been described occupied by 2,5-dihydroxybenzene sulfonic acid	conserve the acetoxyl groups	significant inhibition of HREC proliferation	significant inhibition of HREC proliferation	–	–
CC(=O)Oc1ccc(O)c(S(=O)(=O)[O-])c1.[K+] [5A-2HBS, potassium 5-acetoxy-2-hydroxybenzene sulfonate]	–	Inhibition of FGF-1 induced mitogenesis was observed	inhibition of rat glioma cell proliferation	very close to the one that has been described occupied by 2,5-dihydroxybenzene sulfonic acid	conserve the acetoxyl groups	–	–	–	–
COC(=O)C=Cc1cc(O)ccc1O [2,5-DHCME, 2,5-dihydroxycinnamic acid methyl ester]	–	–	–	–	–	–	–	significant inhibition of HREC proliferation	significant inhibition of HREC proliferation
